According to ChEMBL document CHEMBL1201862, “PubChem BioAssay data set” (2004):
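These data come from cells grown in 96-well plates and exposed to compound for 48 hours at five concentrations. Abbreviation: GI50, concentration required for 50% inhibition of growth.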 Calls of active or inactive are those of the source. Cut-off read from the data, not from the text of the source: active = GI50 up to about 1.1 µM and inactive = higher.

What was measured:
Assay in all cases: NCI-60 cell line screen, 48 h
[1] = test system: HCT-116
[2] = test system: TK-10
[3] = test system: PC-3
[4] = test system: KM-20L2
[5] = test system: SNB-78
[6] = test system: SK-MEL-28
[7] = test system: LXFL 529
[8] = test system: SR
[9] = test system: MCF7
[10] = test system: SNB-19
[11] = test system: HT-29
[12] = test system: SK-MEL-5
[13] = test system: UO-31
[14] = test system: HCT-15
[15] = test system: NCI-H226
[16] = test system: MOLT-4
[17] = test system: NCI-H460
[18] = test system: K562
[19] = test system: M14
[20] = test system: HCC 2998
[21] = test system: LOX IMVI
[22] = test system: SF-295
[23] = test system: MDA-MB-231
[24] = test system: SN12C
[25] = test system: DLD-1
[26] = test system: EKVX
[27] = test system: OVCAR-3
[28] = test system: DMS-273
[29] = test system: ACHN
[30] = test system: UACC-62
[31] = test system: U-251
[32] = test system: RPMI-8226
[33] = test system: CCRF-CEM
[34] = test system: M19-MEL
[35] = test system: OVCAR-5
[36] = test system: COLO 205
[37] = test system: OVCAR-4
[38] = test system: Malme-3M
[39] = test system: NCI-H522
[40] = test system: NCI-H23
[41] = test system: SF-539
[42] = test system: IGROV-1
[43] = test system: SNB-75
[44] = test system: HOP-92
[45] = test system: KM12
[46] = test system: SK-MEL-2
[47] = test system: UACC-257
[48] = test system: DMS-114
[49] = test system: MDA-N
[50] = test system: SF-268
[51] = test system: RXF 393
[52] = test system: OVCAR-8
[53] = test system: SK-OV-3
[54] = test system: 786-0
[55] = test system: MDA-MB-435
[56] = test system: NCI/ADR-RES
[57] = test system: BT-549
[58] = test system: T47D
[59] = test system: HOP-62
[60] = test system: SW-620
[61] = test system: A549
[62] = test system: A498
[63] = test system: HOP-18
[64] = test system: XF498
[65] = test system: DU-145
[66] = test system: HL-60
[67] = test system: CAKI-1
[68] = test system: Hs-578T
[69] = test system: RXF 631

SMILES: COc1cc(C2c3cc4c(cc3[C@@H](Nc3cccc(O)c3)C3COC(=O)[C@H]23)OCO4)cc(OC)c1O (some centres not stated)
- GI50 [1]: 1.76 µM (inactive)
- GI50 [2]: 4.51 µM (inactive)
- GI50 [3]: 2.14 µM (inactive)
- GI50 [4]: 2.16 µM (inactive)
- GI50 [5]: 6.03 µM (inactive)
- GI50 [6]: 2.81 µM (inactive)
- GI50 [7]: 2.55 µM (inactive)
- GI50 [8]: 191 nM (active)
- GI50 [9]: 460 nM (active)
- GI50 [10]: 3.7 µM (inactive)
- GI50 [11]: 3.33 µM (inactive)
- GI50 [12]: 1.7 µM (inactive)
- GI50 [13]: 1.57 µM (inactive)
- GI50 [14]: 1930 nM
- GI50 [15]: 0.771 µM (active)
- GI50 [16]: 35.9 nM (active)
- GI50 [17]: 0.0726 µM (active)
- GI50 [18]: 1.69 µM (inactive)
- GI50 [19]: 2.79 µM (inactive)
- GI50 [20]: 3.58 µM (inactive)
- GI50 [21]: 703 nM (active)
- GI50 [22]: 1.09 µM (active)
- GI50 [23]: 5.42 µM (inactive)
- GI50 [24]: 1.55 µM (inactive)
- GI50 [25]: 3.56 µM (inactive)
- GI50 [26]: 5.16 µM (inactive)
- GI50 [27]: 4.04 µM (inactive)
- GI50 [28]: 887 nM (active)
- GI50 [29]: 668 nM (active)
- GI50 [30]: 1.2 µM (inactive)
- GI50 [31]: 2.04 µM (inactive)
- GI50 [32]: 948 nM (active)
- GI50 [33]: 425 nM (active)
- GI50 [34]: 1.97 µM (inactive)
- GI50 [35]: 8.26 µM (inactive)
- GI50 [36]: 6.17 µM (inactive)
- GI50 [37]: 12.2 µM (inactive)
- GI50 [38]: 2.3 µM (inactive)
- GI50 [39]: 1.32 µM (inactive)
- GI50 [40]: 1.05 µM (active)
- GI50 [41]: 1.14 µM (inactive)
- GI50 [42]: 3.98 µM (inactive)
- GI50 [43]: 2.38 µM (inactive)
- GI50 [44]: 1.32 µM (inactive)
- GI50 [45]: 3.31 µM (inactive)
- GI50 [46]: 5.2 µM (inactive)
- GI50 [47]: 2.05 µM (inactive)
- GI50 [48]: 794 nM (active)
- GI50 [49]: 2.7 µM (inactive)
- GI50 [50]: 1.89 µM (inactive)
- GI50 [51]: 1.44 µM (inactive)
- GI50 [52]: 2 µM (inactive)
- GI50 [53]: 4.61 µM (inactive)
- GI50 [54]: 2.07 µM (inactive)
- GI50 [55]: 2.95 µM (inactive)
- GI50 [56]: 1.4 µM (inactive)
- GI50 [57]: 1.91 µM (inactive)
- GI50 [58]: 2.24 µM (inactive)
- GI50 [59]: 0.817 µM (active)
- GI50 [60]: 2.8 µM (inactive)
- GI50 [61]: 439 nM (active)
- GI50 [62]: 1.62 µM (inactive)
- GI50 [63]: 8.59 µM (inactive)
- GI50 [64]: 0.766 µM (active)
- GI50 [65]: 197 nM (active)
- GI50 [66]: 445 nM (active)

SMILES: O=C1c2cc(CCl)sc2C(=O)c2ccsc21
- GI50 [1]: 0.189 µM (active)
- GI50 [2]: 1.95 µM (inactive)
- GI50 [3]: 0.254 µM (active)
- GI50 [4]: 1.45 µM (inactive)
- GI50 [5]: 0.292 µM (active)
- GI50 [6]: 0.0634 µM (active)
- GI50 [7]: 0.243 µM (active)
- GI50 [8]: 142 nM (active)
- GI50 [67]: 1.72 µM (inactive)
- GI50 [9]: 197 nM (active)
- GI50 [10]: 0.225 µM (active)
- GI50 [11]: 1.16 µM (inactive)
- GI50 [12]: 0.0416 µM (active)
- GI50 [13]: 0.301 µM (active)
- GI50 [14]: 393 nM
- GI50 [15]: 1.69 µM (inactive)
- GI50 [16]: 179 nM (active)
- GI50 [17]: 1.31 µM (inactive)
- GI50 [18]: 0.158 µM (active)
- GI50 [19]: < 0.0187 µM (active)
- GI50 [20]: 1.67 µM (inactive)
- GI50 [21]: < 24.8 nM (active)
- GI50 [22]: 0.0966 µM (active)
- GI50 [23]: 0.232 µM (active)
- GI50 [24]: 0.277 µM (active)
- GI50 [25]: 0.933 µM (active)
- GI50 [26]: 1.24 µM (inactive)
- GI50 [27]: 0.207 µM (active)
- GI50 [28]: 306 nM (active)
- GI50 [29]: 327 nM (active)
- GI50 [30]: 0.178 µM (active)
- GI50 [31]: 0.333 µM (active)
- GI50 [32]: 184 nM (active)
- GI50 [33]: 173 nM (active)
- GI50 [34]: < 0.01 µM (active)
- GI50 [35]: 1.85 µM (inactive)
- GI50 [36]: 1.37 µM (inactive)
- GI50 [37]: 0.184 µM (active)
- GI50 [38]: 0.0387 µM (active)
- GI50 [39]: 0.422 µM (active)
- GI50 [40]: 0.0618 µM (active)
- GI50 [41]: 0.228 µM (active)
- GI50 [42]: 1.49 µM (inactive)
- GI50 [43]: 0.192 µM (active)
- GI50 [44]: 0.427 µM (active)
- GI50 [45]: 1.62 µM (inactive)
- GI50 [46]: 0.153 µM (active)
- GI50 [47]: 0.181 µM (active)
- GI50 [48]: 163 nM (active)
- GI50 [49]: 0.0183 µM (active)
- GI50 [50]: 0.195 µM (active)
- GI50 [51]: 0.231 µM (active)
- GI50 [52]: 0.215 µM (active)
- GI50 [53]: 1.85 µM (inactive)
- GI50 [54]: 1.53 µM (inactive)
- GI50 [55]: 0.0187 µM (active)
- GI50 [68]: 0.233 µM (active)
- GI50 [56]: 0.2 µM (active)
- GI50 [58]: 0.241 µM (active)
- GI50 [60]: 0.195 µM (active)
- GI50 [61]: 199 nM (active)
- GI50 [62]: 1.63 µM (inactive)
- GI50 [63]: 0.264 µM (active)
- GI50 [64]: 1.73 µM (inactive)
- GI50 [65]: 191 nM (active)
- GI50 [66]: 55.9 nM (active)

SMILES: CC1c2ccccc2Cn2cc3c(c21)C(=O)c1cccc(OP(=O)(O)OCc2ccccc2)c1C3=O (configuration not stated)
- GI50 [1]: > 100 µM (inactive)
- GI50 [2]: > 100 µM (inactive)
- GI50 [3]: > 100 µM (inactive)
- GI50 [4]: > 100 µM (inactive)
- GI50 [6]: > 100 µM (inactive)
- GI50 [7]: > 100 µM (inactive)
- GI50 [8]: > 66500 nM (inactive)
- GI50 [67]: > 82.8 µM (inactive)
- GI50 [9]: 71900 nM (inactive)
- GI50 [10]: > 100 µM (inactive)
- GI50 [11]: > 100 µM (inactive)
- GI50 [12]: > 100 µM (inactive)
- GI50 [13]: > 78.3 µM (inactive)
- GI50 [14]: > 100000 nM
- GI50 [15]: > 100 µM (inactive)
- GI50 [69]: > 100 µM (inactive)
- GI50 [16]: > 100000 nM (inactive)
- GI50 [17]: > 100 µM (inactive)
- GI50 [18]: > 74.6 µM (inactive)
- GI50 [19]: > 100 µM (inactive)
- GI50 [20]: > 100 µM (inactive)
- GI50 [21]: > 100000 nM (inactive)
- GI50 [22]: > 100 µM (inactive)
- GI50 [23]: > 100 µM (inactive)
- GI50 [24]: > 100 µM (inactive)
- GI50 [25]: > 100 µM (inactive)
- GI50 [26]: > 66.1 µM (inactive)
- GI50 [27]: > 100 µM (inactive)
- GI50 [29]: > 100000 nM (inactive)
- GI50 [30]: > 100 µM (inactive)
- GI50 [31]: > 100 µM (inactive)
- GI50 [32]: > 100000 nM (inactive)
- GI50 [33]: > 56000 nM (inactive)
- GI50 [35]: > 100 µM (inactive)
- GI50 [36]: > 100 µM (inactive)
- GI50 [37]: > 100 µM (inactive)
- GI50 [38]: > 100 µM (inactive)
- GI50 [39]: > 100 µM (inactive)
- GI50 [40]: > 100 µM (inactive)
- GI50 [41]: > 100 µM (inactive)
- GI50 [42]: > 100 µM (inactive)
- GI50 [43]: > 100 µM (inactive)
- GI50 [44]: > 100 µM (inactive)
- GI50 [45]: > 100 µM (inactive)
- GI50 [46]: > 100 µM (inactive)
- GI50 [47]: > 100 µM (inactive)
- GI50 [48]: > 100000 nM (inactive)
- GI50 [49]: > 100 µM (inactive)
- GI50 [50]: > 100 µM (inactive)
- GI50 [51]: > 100 µM (inactive)
- GI50 [52]: > 100 µM (inactive)
- GI50 [53]: > 100 µM (inactive)
- GI50 [54]: > 100 µM (inactive)
- GI50 [55]: > 100 µM (inactive)
- GI50 [68]: > 100 µM (inactive)
- GI50 [56]: > 100 µM (inactive)
- GI50 [57]: > 100 µM (inactive)
- GI50 [58]: 51.6 µM (inactive)
- GI50 [59]: > 100 µM (inactive)
- GI50 [60]: > 100 µM (inactive)
- GI50 [61]: > 100000 nM (inactive)
- GI50 [62]: > 100 µM (inactive)
- GI50 [64]: 34.3 µM (inactive)
- GI50 [65]: > 100000 nM (inactive)
- GI50 [66]: > 52500 nM (inactive)
